Results as given in patent US4200744A, “Substituted 7α-methoxy-7β[(2,3-dioxo-1-piperazinyl)carbonylaminophenylace tamido]cephalosporins” (Toyama Chemical Company, Limited, priority 1977, dated 1980).

Experiments:
[1] = biological target: T1, Cephalosporinase Serratia W-8 (Serratia marcescens, UniProt P18539); test: Resistance against β-lactamase, iodometric assay; assay type: biochemical; conditions: activity of control Cephalorigine assumed as 100
T1 construct: W-8; endogenous in cells; host or cells: Serratia W-8
T1 sequence (P18539 22-376): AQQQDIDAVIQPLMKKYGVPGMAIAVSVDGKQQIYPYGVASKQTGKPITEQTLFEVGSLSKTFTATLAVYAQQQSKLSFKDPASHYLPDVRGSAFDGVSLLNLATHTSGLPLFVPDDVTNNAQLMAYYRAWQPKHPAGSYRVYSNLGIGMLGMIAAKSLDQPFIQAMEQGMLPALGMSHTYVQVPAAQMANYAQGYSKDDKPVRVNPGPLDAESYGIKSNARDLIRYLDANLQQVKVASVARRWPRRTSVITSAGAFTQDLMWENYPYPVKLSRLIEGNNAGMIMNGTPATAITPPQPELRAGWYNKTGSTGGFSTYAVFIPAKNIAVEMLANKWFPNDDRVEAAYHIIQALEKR
Method: (§1) The resistant activity against β-lactamase of the product obtained above was as shown in Table 3 in which comparisons are shown:
(§2) The resistance of each compound against β-lactamase was determined by the iodometric assay method.

[2] = biological target: T2, Cephalosporinase Pseudomonas aeruginosa TN 918 (Pseudomonas aeruginosa, UniProt P24735); test: Resistance against β-lactamase, iodometric assay; assay type: biochemical; conditions: activity of control Cephalorigine assumed as 100
T2 construct: TN 918; endogenous in cells; host or cells: Pseudomonas aeruginosa TN 918
T2 sequence (P24735 27-397): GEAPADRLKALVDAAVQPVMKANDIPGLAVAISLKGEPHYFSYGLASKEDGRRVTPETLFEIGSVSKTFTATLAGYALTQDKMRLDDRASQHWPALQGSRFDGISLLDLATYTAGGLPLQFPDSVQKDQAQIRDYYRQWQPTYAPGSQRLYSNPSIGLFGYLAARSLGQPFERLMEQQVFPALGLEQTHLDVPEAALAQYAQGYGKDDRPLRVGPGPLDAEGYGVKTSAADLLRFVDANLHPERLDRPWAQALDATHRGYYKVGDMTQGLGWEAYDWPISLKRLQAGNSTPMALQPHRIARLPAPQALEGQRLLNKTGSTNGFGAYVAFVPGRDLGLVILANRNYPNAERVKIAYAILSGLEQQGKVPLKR
Method: as §1, §2

[3] = test system: Penicillinase E. coli TK-3; test: Resistance against β-lactamase, iodometric assay; assay type: biochemical; conditions: activity of control potassium Penicillin G assumed as 100
Method: as §1, §2

[4] = test system: Citrobacter spp Toyama Citizen No. 31; test: MIC by plate method; assay type: cell-based; conditions: Heart Infusion agar pH 7.4, inoculum 10^4 cells per plate (10^6 cells/ml)
Method: (§3) The minimum inhibitory concentration (MIC) was determined by the plate method disclosed in "Chemotherapy" (Japan), Vol. 16, (1968), pages 98-99. The culture medium used was a Heart Infusion agar (pH 7.4). The number of the cells per plate used in the inoculum was 10^4 (10^6 cells/ml).

[5] = test system: Acinetobacter calcoaceticus A-6; test: MIC by plate method; assay type: cell-based; conditions: Heart Infusion agar pH 7.4, inoculum 10^4 cells per plate (10^6 cells/ml)
Method: as §3

[6] = test system: Citrobacter freundii GN 346 (Cephalosporinase-producing bacterium); test: MIC by plate method; assay type: cell-based; set-up: unit not given here; conditions: Heart Infusion agar pH 7.4, inoculum 10^4 cells per plate (10^6 cells/ml)
Method: as §3

[7] = test system: Staphylococcus aureus F-19 (Penicillinase-producing bacterium); test: MIC by plate method; assay type: cell-based; set-up: unit not given here; conditions: Heart Infusion agar pH 7.4, inoculum 10^4 cells per plate (10^6 cells/ml)
Method: as §3

[8] = test system: Enterobacter cloacae IID 977; test: MIC by plate method; assay type: cell-based; set-up: unit not given here; conditions: Heart Infusion agar pH 7.4, inoculum 10^4 cells per plate (10^6 cells/ml)
Method: as §3

[9] = test system: Pseudomonas aeruginosa IFO-3445; test: MIC by plate method; assay type: cell-based; set-up: unit not given here; conditions: Heart Infusion agar pH 7.4, inoculum 10^4 cells per plate (10^6 cells/ml)
Method: as §3

[10] = test system: Proteus vulgaris GN 76 (Cephalosporinase-producing bacterium); test: MIC by plate method; assay type: cell-based; set-up: unit not given here; conditions: Heart Infusion agar pH 7.4, inoculum 10^4 cells per plate (10^6 cells/ml)
Method: as §3

[11] = test system: Escherichia coli NIHJ; test: MIC by plate method; assay type: cell-based; set-up: unit not given here; conditions: Heart Infusion agar pH 7.4, inoculum 10^4 cells per plate (10^6 cells/ml)
Method: as §3

[12] = test system: Serratia marcescens W-8; test: MIC by plate method; assay type: cell-based; set-up: unit not given here; conditions: Heart Infusion agar pH 7.4, inoculum 10^4 cells per plate (10^6 cells/ml)
Method: as §3

[13] = test system: Klebsiella pneumoniae Y-50; test: MIC by plate method; assay type: cell-based; set-up: unit not given here; conditions: Heart Infusion agar pH 7.4, inoculum 10^4 cells per plate (10^6 cells/ml)
Method: as §3

SMILES	relative activity value, Cephalosporinase Serratia W-8 [1]	relative activity value, Cephalosporinase Pseudomonas aeruginosa TN 918 [2]	relative activity value, Penicillinase E. coli TK-3 [3]	minimum inhibitory concentration (MIC) [4]	minimum inhibitory concentration (MIC) [5]	minimum inhibitory concentration (MIC) [6]	minimum inhibitory concentration (MIC) [7]	minimum inhibitory concentration (MIC) [8]	minimum inhibitory concentration (MIC) [9]	minimum inhibitory concentration (MIC) [10]	minimum inhibitory concentration (MIC) [11]	minimum inhibitory concentration (MIC) [12]	minimum inhibitory concentration (MIC) [13]
O=C(Cc1cccs1)N[C@@H]1C(=O)N2C(C(=O)[O-])=C(C[n+]3ccccc3)CS[C@H]12 [Cephalorigine]	100	100	115	–	–	–	–	–	–	–	–	–	–
CCN1CCN(C(=O)N[C@@H](C(=O)N[C@]2(OC)C(=O)N3C(C(=O)O)=C(CSc4nnnn4C)CS[C@@H]32)c2ccccc2)C(=O)C1=O [Compound No. 1, 7β-[D(-)-α-(4-ethyl-2,3-dioxo-1-piperazinylcarbonylamino)phenylacetamido]-7α-methoxy-3-[5-(1-methyl-1,2,3,4-tetrazolyl)thiomethyl]-Δ^3-cephem-4-carboxylic acid]	–	–	–	1.56	12.5	100	6.25	25	12.5	0.78	≤ 0.1	50	0.78
CCN1CCN(C(=O)N[C@@H](C(=O)N[C@]2(OC)C(=O)N3C(C(=O)O)=C(CSc4nnnn4C)CS[C@@H]32)c2ccc(O)cc2)C(=O)C1=O [Compound No. 2, 7β-[D(-)-α-(4-ethyl-2,3-dioxo-1-piperazinylcarbonylamino)-p-hydroxyphenylacetamido]-7α-methoxy-3-[5-(1-methyl-1,2,3,4-tetrazolyl)thiomethyl]-Δ^3-cephem-4-carboxylic acid]	–	–	–	1.56	6.25	100	6.25	100	6.25	0.39	≤ 0.1	100	0.2
CCN1CCN(C(=O)N[C@@H](C(=O)N[C@]2(OC)C(=O)N3C(C(=O)O)=C(CSc4nnc(C)s4)CS[C@@H]32)c2ccccc2)C(=O)C1=O [Compound No. 3, 7β-[D(-)-α-(4-ethyl-2,3-dioxo-1-piperazinylcarbonylamino)phenylacetamido]-7α-methoxy-3-[2-(5-methyl-1,3,4-thiadiazolyl)thiomethyl]-Δ^3-cephem-4-carboxylic acid]	–	–	–	6.25	25	> 200	12.5	100	100	3.13	≤ 0.1	200	1.56
CCN1CCN(C(=O)N[C@@H](C(=O)N[C@]2(OC)C(=O)N3C(C(=O)O)=C(COC(C)=O)CS[C@@H]32)c2ccccc2)C(=O)C1=O [Compound No. 4, 7β-[D(-)-α-(4-ethyl-2,3-dioxo-1-piperazinylcarbonylamino)phenylacetamido]-7α-methoxy-3-acetoxymethyl-Δ^3-cephem-4-carboxylic acid]	< 0.06	< 0.4	< 0.04	–	–	–	12.5	100	50	1.56	≤ 0.1	200	1.56
CCN1CCN(C(=O)N[C@@H](C(=O)N[C@]2(OC)C(=O)N3C(C(=O)O)=C(COC(C)=O)CS[C@@H]32)c2ccc(O)cc2)C(=O)C1=O [Compound No. 5, 7β-[D(-)-α-(4-ethyl-2,3-dioxo-1-piperazinylcarbonylamino)-p-hydroxyphenylacetamido]-7α-methoxy-3-acetoxymethyl-Δ^3-cephem-4-carboxylic acid]	–	–	–	–	–	25	25	100	12.5	3.13	≤ 0.1	200	0.78
CC1(C)S[C@@H]2[C@H](NC(=O)Cc3ccccc3)C(=O)N2[C@H]1C(=O)O [Potassium Penicillin G]	21	16	100	–	–	–	–	–	–	–	–	–	–
